The numbers were not newly measured in patent US6365196B1, “Controlled release solid dosage forms of lithium carbonate” (SmithKline Beecham Corporation, priority 1997, dated 2002), which cites them from elsewhere.

As for `O=C(O)/C=C/C(=O)O` [fumaric acid], the solubility in water is given as 6 mg per ml.
